From patent publication US9822115B2, “Nitrogen containing compounds and their use as antibacterial agents” (WOCKHARDT LIMITED, priority 2014, dated 2017)
In brackets after ≈: the same amount, converted by molar mass. Like-named read-outs stand apart in the source and are kept apart here.

How the values were obtained:
[1] = system: T1, Class C beta-lactamase, E. coli M50 (CMY/DHA); type: biochemical; conditions: read-out: Beta-lactamase enzyme inhibition IC50
T1 construct: no borders, tags or purification printed
Description: (§1) Determination of enzyme inhibition activity: Concentration of the inhibitor required to inhibit 50% of enzymatic activity was measured by adding a chromogenic substrate, Nitrocefin (100 uM, 5 min) to the preincubated mixture of crude enzyme and the agents (37° C., 10 min). Absorbance was measured at 485 nm by UV-spectrophotometer. The IC50 was calculated by plotting absorbance against concentration through Sigmoidal dose response curve using Graph Pad software.
(§2) The enzyme inhibition was expressed as IC50.

[2] = system: K. pneomoniae S48 (NDM, SHV, TEM); experiment: Antibacterial activity, MIC by agar dilution (CLSI); type: cell-based, K. pneumoniae; conditions: Table 2, K. pneomoniae S48 (NDM, SHV, TEM)
Description: (§3) The biological activity of representative compounds according to the invention against various bacterial strains was investigated. In a typical study, overnight grown bacterial cultures were diluted appropriately and inoculated on the agar media containing doubling dilutions of the test compounds. Observations for growth or no growth was performed after 16-20 hours of incubation at 35±2° C. in the ambient air. The overall procedure was performed as per Clinical and Laboratory Standards Institute (CLSI) recommendations, (Clinical and Laboratory Standards Institute (CLSI), Performance Standards for Antimicrobial Susceptibility Testing, 20th Informational Supplement, M07-A9, Volume 32, No. 2, 2012). Molten Mueller Hinton Agar (BD, USA) containing serial dilutions of each antibacterial agent were poured on to the plates and allowed to solidify. Appropriate suspensions from the freshly grown cultures were prepared in normal saline so that about 10^4 CFU/spot of the organism was delivered on to the drug containing agar plates using automated multipoint inoculator (Mast, UK). The plates were incubated in Biochemical oxygen demand (BOD) incubator at 37° C. for 18 hours and then examined for growth.
(§4) The strains selected for study included E. coli NCTC 13353 producing CTX-M15 and OXA-1 beta-lactamase enzymes; K. pneumoniae H521 producing KPC, SHV, TEM beta-lactamase enzymes; and K. pneumoniae S48 producing NDM, SHV, TEM beta-lactamase enzymes. The activities are expressed as Minimum Inhibitory Concentrations (MICs) (mcg/ml).

[3] = system: K. pneumoniae H521 (KPC, SHV, TEM); experiment: as above; type: cell-based; conditions: Table 2, K. pneumoniae H521 (KPC, SHV, TEM)
Description: as §3, §4

[4] = system: E. coli NCTC 13353 (CTX-M15, OXA-1); experiment: as above; type: cell-based; conditions: E. Coli NCTC 13353 (CTX-M15, OXA-1)
Description: as §3
as §4, with “Table 2 details the antibacterial activity of representative compounds according to invention, against various Multi Drug Resistant (MDR) Gram-negative bacterial strains. The strains” for “The strains”

[5] = target: T2, Class A beta-lactamase, K. pneumoniae ATCC 700603 (SHV 18) (Klebsiella pneumoniae, UniProt P0AD64, E235K/G234A/R39S); experiment: biochemical
T2 construct: preincubated mixture of crude enzyme and the agents; endogenous in cells; host or cells: K. pneumoniae ATCC 700603
Description: as §1, §2

[6] = target: T3, Class D beta-lactamase, A. baumannii NCTC 13301 (OXA 23) (Acinetobacter baumannii, UniProt Q9L4P2); experiment: Beta-lactamase enzyme inhibition (nitrocefin, crude enzyme); type: biochemical; conditions: Class D A. baumannii NCTC 13301 (OXA 23); read-out: Beta-lactamase enzyme inhibition IC50
T3 construct: preincubated mixture of crude enzyme and the agents; endogenous in cells; host or cells: A. baumannii NCTC 13301
Description: as §1, §2

[7] = Klebsiella pneumoniae, read-out: MIC
[8] = Escherichia coli, NCTC13353, Table 2, read-out: MIC

T3 sequence (Q9L4P2 18-273): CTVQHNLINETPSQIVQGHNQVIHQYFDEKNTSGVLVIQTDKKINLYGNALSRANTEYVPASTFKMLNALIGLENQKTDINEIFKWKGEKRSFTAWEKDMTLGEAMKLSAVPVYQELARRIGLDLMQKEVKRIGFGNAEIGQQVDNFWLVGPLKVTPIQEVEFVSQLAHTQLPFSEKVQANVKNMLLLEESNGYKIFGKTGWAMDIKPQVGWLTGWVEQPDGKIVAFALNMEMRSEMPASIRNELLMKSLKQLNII
T2 sequence (P0AD64 22-286 R39S/G234A/E235K): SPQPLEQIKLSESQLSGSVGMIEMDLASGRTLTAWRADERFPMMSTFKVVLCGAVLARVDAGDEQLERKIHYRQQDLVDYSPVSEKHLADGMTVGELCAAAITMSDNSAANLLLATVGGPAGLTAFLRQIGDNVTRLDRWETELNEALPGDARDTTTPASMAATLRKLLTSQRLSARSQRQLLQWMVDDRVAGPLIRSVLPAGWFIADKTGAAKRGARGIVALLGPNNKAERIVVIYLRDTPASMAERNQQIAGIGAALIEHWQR

Structure (SMILES): NCCCOc1ccccc1CC(=O)NNC(=O)[C@@H]1CC[C@@H]2CN1C(=O)N2OS(=O)(=O)O [Example 34, (2S,5R)-sulfuric acid mono-[2-(N′-{2-[2-(3-amino-propoxy)-phenyl]-acetyl}-hydrazinocarbonyl)-7-oxo-1,6-diaza-bicyclo[3.2.1]oct-6-yl]ester]
- IC50 [1]: 60 nM
- MIC [2, 7]: 2 µg/mL (≈ 4.24 µM)
- MIC [3, 7]: 2 µg/mL (≈ 4.24 µM)
- MIC [4, 8]: 2 µg/mL (≈ 4.24 µM)
- IC50 [5]: 79 nM
- IC50 [6]: 3810 nM

Structure (SMILES): C[C@@H](N)COc1cccc(CC(=O)NNC(=O)[C@@H]2CC[C@@H]3CN2C(=O)N3OS(=O)(=O)O)c1 [Example 42, (2S,5R)-sulfuric acid mono-[2-(N′-{2-[3-((R)-2-amino-propoxy)-phenyl]-acetyl}-hydrazinocarbonyl)-7-oxo-1,6-diaza-bicyclo[3.2.1]oct-6-yl]ester]
- IC50 [1]: 32 nM
- MIC [2, 7]: 0.5 µg/mL (≈ 1.06 µM)
- MIC [3, 7]: 1 µg/mL (≈ 2.12 µM)
- MIC [4, 8]: 1 µg/mL (≈ 2.12 µM)
- IC50 [5]: 36 nM
- IC50 [6]: 1230 nM

Structure (SMILES): O=C(Cc1ccccc1OC[C@@H]1CCCN1)NNC(=O)[C@@H]1CC[C@@H]2CN1C(=O)N2OS(=O)(=O)O [Example 56, (2S,5R)-sulfuric acid mono-[2-(N′-{2-[2-((S)-pyrrolidin-2-ylmethoxy)-phenyl]-acetyl}-hydrazinocarbonyl)-7-oxo-1,6-diaza-bicyclo[3.2.1]oct-6-yl]ester]
- IC50 [1]: 50 nM
- MIC [2, 7]: 16 µg/mL (≈ 32.2 µM)
- MIC [3, 7]: 16 µg/mL (≈ 32.2 µM)
- MIC [4, 8]: 8 µg/mL (≈ 16.1 µM)
- IC50 [5]: 142 nM
- IC50 [6]: 1760 nM

Structure (SMILES): C[C@@H](N)COc1ccc(CC(=O)NNC(=O)[C@@H]2CC[C@@H]3CN2C(=O)N3OS(=O)(=O)O)cc1 [Example 49, (2S,5R)-sulfuric acid mono-[2-(N′-{2-[4-((R)-2-amino-propoxy)-phenyl]-acetyl}-hydrazinocarbonyl)-7-oxo-1,6-diaza-bicyclo[3.2.1]oct-6-yl]ester]
- IC50 [1]: 47 nM
- MIC [2, 7]: 0.5 µg/mL (≈ 1.06 µM)
- MIC [3, 7]: 1 µg/mL (≈ 2.12 µM)
- MIC [4, 8]: 0.5 µg/mL (≈ 1.06 µM)
- IC50 [5]: 112 nM
- IC50 [6]: 542 nM

Structure (SMILES): C[C@H](N)COc1ccc(CC(=O)NNC(=O)[C@@H]2CC[C@@H]3CN2C(=O)N3OS(=O)(=O)O)cc1 [Example 43, (2S,5R)-sulfuric acid mono-[2-(N′-{2-[4-((S)-2-amino-propoxy)-phenyl]-acetyl}-hydrazinocarbonyl)-7-oxo-1,6-diaza-bicyclo[3.2.1]oct-6-yl]ester]
- IC50 [1]: 37 nM
- MIC [2, 7]: 0.5 µg/mL (≈ 1.06 µM)
- MIC [3, 7]: 2 µg/mL (≈ 4.24 µM)
- MIC [4, 8]: 0.5 µg/mL (≈ 1.06 µM)
- IC50 [5]: 386 nM
- IC50 [6]: 522 nM

Structure (SMILES): NCCOc1ccc(CC(=O)NNC(=O)[C@@H]2CC[C@@H]3CN2C(=O)N3OS(=O)(=O)O)cc1 [Example 30, (2S,5R)-sulfuric acid mono-[2-(N′-{2-[4-(2-amino-ethoxy)-phenyl]-acetyl}-hydrazinocarbonyl)-7-oxo-1,6-diaza-bicyclo[3.2.1]oct-6-yl]ester]
- IC50 [1]: 36 nM
- MIC [2, 7]: 0.5 µg/mL (≈ 1.09 µM)
- MIC [3, 7]: 2 µg/mL (≈ 4.37 µM)
- MIC [4, 8]: 0.5 µg/mL (≈ 1.09 µM)
- IC50 [5]: 7 nM
- IC50 [6]: 451 nM

Structure (SMILES): CC(C)[C@H](N)C(=O)Oc1ccc(CC(=O)NNC(=O)[C@@H]2CC[C@@H]3CN2C(=O)N3OS(=O)(=O)O)cc1 [Example 24, (S)-2-amino-3-methyl-butyric acid 4-{2-oxo-2-[N′-((2S,5R)-7-oxo-6-sulphooxy-1,6-diaza-bicyclo[3.2.1]octane-2-carbonyl)-hydrazino]ethyl}-phenyl ester]
- IC50 [1]: 5 nM
- MIC [2, 7]: 0.5 µg/mL (≈ 0.974 µM)
- MIC [3, 7]: 4 µg/mL (≈ 7.79 µM)
- MIC [4, 8]: 1 µg/mL (≈ 1.95 µM)
- IC50 [5]: 2 nM
- IC50 [6]: 151 nM

Structure (SMILES): O=C(Cc1ccc(OC[C@@H]2CCCN2)cc1)NNC(=O)[C@@H]1CC[C@@H]2CN1C(=O)N2OS(=O)(=O)O [Example 61, (2S,5R)-sulfuric acid mono-[2-(N′-{2-[4-((S)-pyrrolidin-2-ylmethoxy)-phenyl]-acetyl}-hydrazinocarbonyl)-7-oxo-1,6-diaza-bicyclo[3.2.1]oct-6-yl]ester]
- IC50 [1]: 29 nM
- MIC [2, 7]: 1 µg/mL (≈ 2.01 µM)
- MIC [3, 7]: 2 µg/mL (≈ 4.02 µM)
- MIC [4, 8]: 1 µg/mL (≈ 2.01 µM)
- IC50 [5]: 71 nM
- IC50 [6]: 690 nM

Structure (SMILES): CC(C)[C@H](N)COc1ccccc1CC(=O)NNC(=O)[C@@H]1CC[C@@H]2CN1C(=O)N2OS(=O)(=O)O [Example 50, (2S,5R)-sulfuric acid mono-[2-(N′-{2-[2-((S)-2-amino-3-methyl-butoxy)-phenyl]-acetyl}-hydrazinocarbonyl)-7-oxo-1,6-diaza-bicyclo[3.2.1]oct-6-yl]ester]
- IC50 [1]: 77 nM
- MIC [2, 7]: 16 µg/mL (≈ 32 µM)
- MIC [3, 7]: > 32 µg/mL
- MIC [4, 8]: 16 µg/mL (≈ 32 µM)
- IC50 [5]: 79 nM
- IC50 [6]: 1170 nM

Structure (SMILES): O=C(Cc1ccc(OC(=O)[C@@H]2CCCN2)cc1)NNC(=O)[C@@H]1CC[C@@H]2CN1C(=O)N2OS(=O)(=O)O [Example 25, (S)-pyrrolidine-2-carboxylic acid 4-{2-oxo-2-[N′-((2S,5R)-7-oxo-6-sulphooxy-1,6-diaza-bicyclo[3.2.1]octane-2-carbonyl)-hydrazino]ethyl}-phenyl ester]
- IC50 [1]: 11 nM
- MIC [2, 7]: 1 µg/mL (≈ 1.95 µM)
- MIC [3, 7]: 1 µg/mL (≈ 1.95 µM)
- MIC [4, 8]: 0.5 µg/mL (≈ 0.977 µM)
- IC50 [5]: 16 nM
- IC50 [6]: 329 nM

Structure (SMILES): CC(C)[C@H](N)COc1ccc(CC(=O)NNC(=O)[C@@H]2CC[C@@H]3CN2C(=O)N3OS(=O)(=O)O)cc1 [Example 54, (2S,5R)-sulfuric acid mono-[2-(N′-{2-[4-((S)-2-amino-3-methyl-butoxy)-phenyl]-acetyl}-hydrazinocarbonyl)-7-oxo-1,6-diaza-bicyclo[3.2.1]oct-6-yl]ester]
- IC50 [1]: 40 nM
- MIC [2, 7]: 1 µg/mL (≈ 2 µM)
- MIC [3, 7]: 8 µg/mL (≈ 16 µM)
- MIC [4, 8]: 1 µg/mL (≈ 2 µM)
- IC50 [5]: 37 nM
- IC50 [6]: 625 nM

Structure (SMILES): NCCOc1cccc(CC(=O)NNC(=O)[C@@H]2CC[C@@H]3CN2C(=O)N3OS(=O)(=O)O)c1 [Example 32, (2S,5R)-sulfuric acid mono-[2-(N′-{2-[3-(2-amino-ethoxy)-phenyl]-acetyl}-hydrazinocarbonyl)-7-oxo-1,6-diaza-bicyclo[3.2.1]oct-6-yl]ester]
- IC50 [1]: 33 nM
- MIC [2, 7]: 0.5 µg/mL (≈ 1.09 µM)
- MIC [3, 7]: 0.5 µg/mL (≈ 1.09 µM)
- MIC [4, 8]: 0.5 µg/mL (≈ 1.09 µM)
- IC50 [5]: 76 nM
- IC50 [6]: 1770 nM

Structure (SMILES): O=C(Cc1cccc(OC[C@@H]2CCNC2)c1)NNC(=O)[C@@H]1CC[C@@H]2CN1C(=O)N2OS(=O)(=O)O [Example 60, (2S,5R)-sulfuric acid mono-[2-(N′-{2-[3-((R)-pyrrolidin-3-ylmethoxy)-phenyl]-acetyl}-hydrazinocarbonyl)-7-oxo-1,6-diaza-bicyclo[3.2.1]oct-6-yl]ester]
- IC50 [1]: 41 nM
- MIC [2, 7]: 1 µg/mL (≈ 2.01 µM)
- MIC [3, 7]: 2 µg/mL (≈ 4.02 µM)
- MIC [4, 8]: 1 µg/mL (≈ 2.01 µM)
- IC50 [5]: 45 nM
- IC50 [6]: 1280 nM

Structure (SMILES): CC(OC(=O)NCCOc1ccccc1CC(=O)NNC(=O)[C@@H]1CC[C@@H]2CN1C(=O)N2OS(=O)(=O)[O-])OC(=O)C(C)C.[Na+] (stereo partly drawn) [Example 65, sodium salt of isobutyric acid 1-[2-(2-{2-oxo-2-[N′-((2S,5R)-6-sulphooxy-7-oxo-1,6-diaza-bicyclo[3.2.1]octane-2-carbonyl)-hydrazino]-ethyl}-phenoxy)-ethylcarbamoyloxy]-ethyl ester]
- IC50 [1]: 5 nM
- MIC [2]: >32 µg/mL
- MIC [3]: >32 µg/mL
- MIC ([4]; Table 2): >32 µg/mL
- IC50 ([5]; Class A K. pneumoniae ATCC 700603 (SHV 18), read-out: Beta-lactamase enzyme inhibition IC50): 8 nM
- IC50 [6]: 537 nM
